Assay results published in US4745177A, “Desulfatohirudins, the preparation thereof and pharmaceutical compositions containing them” (Ciba-Geigy Corporation, priority 1983, dated 1988).

Legend:
[1] = unusually high doses given to dogs; cited from earlier work
[2] = system: other proteinases of the clotting cascade; details: completely specific for thrombin; cited from earlier work
[3] = system: experimental thrombosis (stasis or thrombin injection), endotoxin shock, DIC; details: cited from earlier work
thrombin [4] = target: T1, thrombin (Homo sapiens, UniProt P00734); assay: inhibition of thrombin with chromogenic substrate Chromozym TH; assay type: biochemical; details: starting material of Example 1
Protocol: The biological activity is determined from the inhibition of thrombin, whose enzymatic activity is in turn determined using the chromogenic substrate Chromozym TH (a product of Boehringer, Mannheim, West Germany, for thrombin and hirudin determination) in accordance with known directions supplied with the test preparation.

thrombin [5] = target: T1, thrombin; details: thrombin inhibitor; cited from earlier work

Hirudin
effect on heart rate, respiration, blood pressure, thrombocytes, fibrinogen and haemoglobin [1]: No effect | inhibition of other proteinases of the clotting cascade [2]: does not inhibit | efficacy in experimental thrombosis, endotoxin shock and DIC ([3]; rats, pigs, dogs, thrombosis induced by stasis or thrombin injection): proved effective | direct comparison with heparin ([3]; whenever direct comparison tests were carried out): superior to heparin | activity (inhibition of thrombin) (thrombin [4]): 630 IU/mg | Ki (thrombin [5]): ~0.06 nM
